# ChEMBL document CHEMBL1201862, “PubChem BioAssay data set” (2004)
# Calls of active or inactive are those of the source.
# Legend:
# [1] = biological target: T1, Leucine aminopeptidase (Plasmodium falciparum 3D7, UniProt Q8IL11); assay: P. falciparum M17LAP inhibitors, primary screen, biochemical, fluorogenic H-Leu-NHMec substrate, 1536-well (AID 1619); assay type: functional
# T1 sequence (Q8IL11 whole entry): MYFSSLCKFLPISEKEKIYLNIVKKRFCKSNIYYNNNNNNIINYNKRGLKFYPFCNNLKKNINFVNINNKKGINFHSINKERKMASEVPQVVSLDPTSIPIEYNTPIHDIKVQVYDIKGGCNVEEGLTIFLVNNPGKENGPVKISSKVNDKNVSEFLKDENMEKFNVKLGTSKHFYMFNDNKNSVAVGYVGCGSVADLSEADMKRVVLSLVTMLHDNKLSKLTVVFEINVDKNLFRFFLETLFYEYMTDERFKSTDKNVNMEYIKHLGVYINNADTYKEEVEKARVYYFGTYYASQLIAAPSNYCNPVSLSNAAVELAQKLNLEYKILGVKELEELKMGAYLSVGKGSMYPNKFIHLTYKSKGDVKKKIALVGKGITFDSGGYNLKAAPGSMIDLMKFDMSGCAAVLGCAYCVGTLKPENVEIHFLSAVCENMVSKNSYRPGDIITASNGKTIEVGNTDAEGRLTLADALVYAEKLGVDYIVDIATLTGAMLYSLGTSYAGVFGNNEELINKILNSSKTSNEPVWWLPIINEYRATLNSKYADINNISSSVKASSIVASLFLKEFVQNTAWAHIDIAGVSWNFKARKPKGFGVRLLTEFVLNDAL
# [2] = biological target: T2, Aspartyl aminopeptidase (Plasmodium falciparum 3D7, UniProt Q8I2J3); assay: Counterscreen for inhibitors of M1 and M17 aminopeptidases: QFRET-based biochemical high throughput dose response assay for inhibitors of the Plasmodium falciparum M18 Aspartyl Aminopeptidase (PFM18AAP). [Related PubChem assays: 1619 (Screening assay (M17LAP inhibitors).), 1445 (Screening assay (M1AAP inhibitors).)]
# T2 sequence (Q8I2J3 whole entry): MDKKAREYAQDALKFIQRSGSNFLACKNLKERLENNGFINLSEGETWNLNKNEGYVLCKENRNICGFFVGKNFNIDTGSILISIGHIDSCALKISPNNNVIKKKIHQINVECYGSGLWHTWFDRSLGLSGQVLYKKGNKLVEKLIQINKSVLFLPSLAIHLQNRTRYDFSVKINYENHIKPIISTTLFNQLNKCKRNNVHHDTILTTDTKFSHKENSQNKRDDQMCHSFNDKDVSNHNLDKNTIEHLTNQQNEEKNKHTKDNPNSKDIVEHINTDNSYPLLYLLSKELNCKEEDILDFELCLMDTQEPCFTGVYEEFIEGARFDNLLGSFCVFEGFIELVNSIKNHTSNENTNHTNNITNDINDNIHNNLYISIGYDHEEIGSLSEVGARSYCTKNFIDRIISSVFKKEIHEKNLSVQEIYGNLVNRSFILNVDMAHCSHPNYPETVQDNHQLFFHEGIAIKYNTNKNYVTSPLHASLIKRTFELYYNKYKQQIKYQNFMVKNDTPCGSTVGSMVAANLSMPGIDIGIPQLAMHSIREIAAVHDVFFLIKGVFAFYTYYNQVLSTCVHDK
# [3] = biological target: Procathepsin L (Homo sapiens, UniProt P07711); assay: cathepsin L inhibitors, dose response, counter-screen for M1/M17 aminopeptidase inhibitor project, biochemical, QFRET, 1536-well (AID 2214)
# Chain of Procathepsin L (P07711 whole entry): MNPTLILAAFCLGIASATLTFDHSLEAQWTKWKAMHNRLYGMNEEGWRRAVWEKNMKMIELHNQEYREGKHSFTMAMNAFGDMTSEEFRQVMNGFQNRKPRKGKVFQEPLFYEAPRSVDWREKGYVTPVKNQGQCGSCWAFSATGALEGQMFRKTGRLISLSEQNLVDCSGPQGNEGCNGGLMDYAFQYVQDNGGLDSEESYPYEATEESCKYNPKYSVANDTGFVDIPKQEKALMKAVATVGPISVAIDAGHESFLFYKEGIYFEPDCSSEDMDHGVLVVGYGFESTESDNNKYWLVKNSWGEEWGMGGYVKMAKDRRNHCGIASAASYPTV
# [4] = biological target: T3, Replicative DNA helicase DnaB (Mycobacterium tuberculosis, UniProt P9WMR3); assay: DnaB intein splicing inhibitors, dose response, biochemical, cell-free fluorescence (AID 449749); assay type: functional
# T3 sequence (P9WMR3 whole entry): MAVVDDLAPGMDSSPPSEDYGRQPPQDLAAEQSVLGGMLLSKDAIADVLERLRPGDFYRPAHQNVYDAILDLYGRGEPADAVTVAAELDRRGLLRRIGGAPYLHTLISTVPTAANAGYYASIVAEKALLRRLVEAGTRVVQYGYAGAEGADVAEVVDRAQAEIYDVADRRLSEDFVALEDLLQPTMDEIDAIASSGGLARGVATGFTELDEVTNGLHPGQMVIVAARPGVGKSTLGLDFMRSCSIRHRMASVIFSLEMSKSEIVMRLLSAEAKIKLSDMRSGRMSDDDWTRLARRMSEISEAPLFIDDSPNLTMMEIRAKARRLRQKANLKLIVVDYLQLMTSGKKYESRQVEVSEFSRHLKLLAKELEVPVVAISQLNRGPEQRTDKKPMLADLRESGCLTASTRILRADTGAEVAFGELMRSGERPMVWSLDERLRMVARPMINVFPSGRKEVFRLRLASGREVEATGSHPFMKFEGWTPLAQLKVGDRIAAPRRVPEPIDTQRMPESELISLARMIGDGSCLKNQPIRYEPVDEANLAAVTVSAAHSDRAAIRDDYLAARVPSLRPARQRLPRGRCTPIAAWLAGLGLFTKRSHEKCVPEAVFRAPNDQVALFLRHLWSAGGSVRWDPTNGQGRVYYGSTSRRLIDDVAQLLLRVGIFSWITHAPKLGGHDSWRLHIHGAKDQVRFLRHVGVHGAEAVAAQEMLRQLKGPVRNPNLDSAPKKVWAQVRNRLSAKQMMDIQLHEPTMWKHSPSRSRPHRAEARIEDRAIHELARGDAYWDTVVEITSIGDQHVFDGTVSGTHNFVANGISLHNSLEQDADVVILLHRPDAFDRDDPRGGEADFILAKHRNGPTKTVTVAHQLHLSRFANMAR
# [5] = biological target: T4, Protein RecA (Mycobacterium tuberculosis, UniProt P9WHJ3); assay: Fluorescence Cell-Free Homogeneous Dose Retest to Identify Inhibitors of RecA-Intein Splicing Activity. [Related pubchem assays (depositor defined):AID2097, AID2223, AID489010, AID492950]; assay type: functional
# T4 sequence (P9WHJ3 whole entry): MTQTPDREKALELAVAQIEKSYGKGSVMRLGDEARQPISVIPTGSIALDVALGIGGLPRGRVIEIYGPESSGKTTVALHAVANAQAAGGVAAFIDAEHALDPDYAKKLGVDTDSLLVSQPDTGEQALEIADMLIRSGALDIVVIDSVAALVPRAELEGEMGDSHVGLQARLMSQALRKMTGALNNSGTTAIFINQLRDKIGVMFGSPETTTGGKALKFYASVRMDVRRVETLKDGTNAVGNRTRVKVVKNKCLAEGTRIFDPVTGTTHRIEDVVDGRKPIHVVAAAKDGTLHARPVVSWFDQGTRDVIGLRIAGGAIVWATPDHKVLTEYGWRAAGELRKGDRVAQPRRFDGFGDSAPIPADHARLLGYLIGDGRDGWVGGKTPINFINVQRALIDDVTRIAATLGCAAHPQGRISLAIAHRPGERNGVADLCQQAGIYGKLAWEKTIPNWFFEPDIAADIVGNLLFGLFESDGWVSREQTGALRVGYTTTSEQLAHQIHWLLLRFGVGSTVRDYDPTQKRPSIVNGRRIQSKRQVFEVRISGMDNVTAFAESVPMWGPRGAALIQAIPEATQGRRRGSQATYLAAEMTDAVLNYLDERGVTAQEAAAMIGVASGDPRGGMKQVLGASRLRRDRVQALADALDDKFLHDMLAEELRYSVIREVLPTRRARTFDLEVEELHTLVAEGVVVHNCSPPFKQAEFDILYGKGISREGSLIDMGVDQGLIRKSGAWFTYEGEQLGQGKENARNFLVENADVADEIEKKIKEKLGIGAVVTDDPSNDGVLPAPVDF
# [6] = biological target: Epstein-Barr nuclear antigen 1 (Epstein-Barr virus (strain B95-8) (HHV-4) (Human herpesvirus 4), UniProt P03211); assay: EBNA-1 inhibitors, dose response, biochemical, fluorescence polarization, 1536-well (AID 2381); set-up: species or system human gammaherpesvirus 4;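 also: fluorescence polarization of a Cy5 DNA probe bound by EBNA-1 protein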
# Chain of Epstein-Barr nuclear antigen 1 (P03211 whole entry): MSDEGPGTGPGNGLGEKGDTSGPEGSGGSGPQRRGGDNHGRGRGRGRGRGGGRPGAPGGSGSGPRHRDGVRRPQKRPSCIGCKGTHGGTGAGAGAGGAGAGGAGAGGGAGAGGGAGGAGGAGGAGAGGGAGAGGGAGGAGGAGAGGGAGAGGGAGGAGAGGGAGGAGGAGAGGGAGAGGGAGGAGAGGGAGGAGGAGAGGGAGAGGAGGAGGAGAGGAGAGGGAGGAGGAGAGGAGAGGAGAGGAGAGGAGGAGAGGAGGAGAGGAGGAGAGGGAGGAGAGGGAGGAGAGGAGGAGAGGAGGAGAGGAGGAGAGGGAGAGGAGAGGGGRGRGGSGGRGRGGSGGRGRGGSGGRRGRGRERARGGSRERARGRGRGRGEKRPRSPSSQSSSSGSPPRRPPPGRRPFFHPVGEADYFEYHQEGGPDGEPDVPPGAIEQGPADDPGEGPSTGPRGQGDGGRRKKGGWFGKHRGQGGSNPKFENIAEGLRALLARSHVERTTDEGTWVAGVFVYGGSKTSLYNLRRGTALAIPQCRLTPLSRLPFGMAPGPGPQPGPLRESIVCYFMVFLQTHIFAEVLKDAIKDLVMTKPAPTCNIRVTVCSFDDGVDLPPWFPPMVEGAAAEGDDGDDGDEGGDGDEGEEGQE
# [7] = biological target: Lytic switch protein BZLF1 (Epstein-Barr virus (strain B95-8) (HHV-4) (Human herpesvirus 4), UniProt P03206); assay: EBV ZTA inhibitors, dose response, counter-screen for EBNA-1 inhibitor project, biochemical, fluorescence polarization, Epstein-Barr virus, 1536-well (AID 2377); set-up: species or system human gammaherpesvirus 4;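 also: fluorescence polarization of Cy5-labelled ZRE DNA probe bound by purified Zta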
# Chain of Lytic switch protein BZLF1 (P03206 whole entry): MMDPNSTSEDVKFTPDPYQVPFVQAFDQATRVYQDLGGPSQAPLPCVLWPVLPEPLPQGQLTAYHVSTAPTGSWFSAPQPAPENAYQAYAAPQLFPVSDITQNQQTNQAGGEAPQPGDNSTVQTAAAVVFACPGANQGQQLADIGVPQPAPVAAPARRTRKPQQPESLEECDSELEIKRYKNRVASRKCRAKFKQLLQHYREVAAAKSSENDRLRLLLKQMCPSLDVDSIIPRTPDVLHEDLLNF
# [8] = biological target: T5, NADPH oxidase 1 (Homo sapiens, UniProt Q9Y5S8); assay type: functional, cell-based;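 also: Cell-based assay with luminescence read-out, IC50 derived from inhibitor dose-response curves; intracellular ROS from endogenous NOX1 in intact HT29 colon cancer cells; potency of inhibitors that lower the ROS luminescence signal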
# T5 sequence (Q9Y5S8 whole entry): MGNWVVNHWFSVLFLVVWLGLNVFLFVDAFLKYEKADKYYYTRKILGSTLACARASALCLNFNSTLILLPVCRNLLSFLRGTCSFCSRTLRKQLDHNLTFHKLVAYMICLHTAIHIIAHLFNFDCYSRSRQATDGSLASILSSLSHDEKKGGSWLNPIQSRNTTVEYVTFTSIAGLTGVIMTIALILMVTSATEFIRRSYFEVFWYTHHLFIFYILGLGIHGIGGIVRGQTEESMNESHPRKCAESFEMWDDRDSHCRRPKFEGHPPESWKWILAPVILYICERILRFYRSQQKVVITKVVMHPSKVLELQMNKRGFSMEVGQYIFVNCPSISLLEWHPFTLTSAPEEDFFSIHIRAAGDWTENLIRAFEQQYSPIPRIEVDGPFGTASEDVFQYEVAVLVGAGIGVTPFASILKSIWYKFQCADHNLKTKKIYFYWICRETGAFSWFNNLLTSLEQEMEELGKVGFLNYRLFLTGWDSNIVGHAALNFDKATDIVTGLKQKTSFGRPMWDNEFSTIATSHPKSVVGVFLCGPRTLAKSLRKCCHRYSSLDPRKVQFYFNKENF
# [9] = biological target: T6, Neuropeptide Y receptor type 1 (Homo sapiens, UniProt P25929); assay type: functional;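 also: HEK293 cells with a CNG channel challenged with NPY then isoproterenol; potency as antagonist that reverses NPY suppression of cAMP signal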
# T6 sequence (P25929 whole entry): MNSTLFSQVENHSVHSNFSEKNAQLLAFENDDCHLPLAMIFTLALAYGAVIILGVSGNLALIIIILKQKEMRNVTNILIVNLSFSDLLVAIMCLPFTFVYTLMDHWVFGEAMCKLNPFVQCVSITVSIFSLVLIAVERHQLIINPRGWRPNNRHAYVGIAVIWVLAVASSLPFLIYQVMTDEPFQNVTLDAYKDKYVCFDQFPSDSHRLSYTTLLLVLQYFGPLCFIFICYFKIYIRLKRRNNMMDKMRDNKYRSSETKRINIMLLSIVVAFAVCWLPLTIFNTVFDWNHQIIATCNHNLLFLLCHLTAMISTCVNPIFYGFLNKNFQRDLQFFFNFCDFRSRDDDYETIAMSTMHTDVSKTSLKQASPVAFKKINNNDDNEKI
# [10] = biological target: T7, Neuropeptide Y receptor type 2 (Homo sapiens, UniProt P49146); assay type: functional, cell-based;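 also: HEK293 cells expressing the receptor and a CNG channel; stimulus was NPY near EC95 followed by isoproterenol to raise cAMP; antagonist potency measured as restoring cAMP signal that NPY suppresses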
# T7 sequence (P49146 whole entry): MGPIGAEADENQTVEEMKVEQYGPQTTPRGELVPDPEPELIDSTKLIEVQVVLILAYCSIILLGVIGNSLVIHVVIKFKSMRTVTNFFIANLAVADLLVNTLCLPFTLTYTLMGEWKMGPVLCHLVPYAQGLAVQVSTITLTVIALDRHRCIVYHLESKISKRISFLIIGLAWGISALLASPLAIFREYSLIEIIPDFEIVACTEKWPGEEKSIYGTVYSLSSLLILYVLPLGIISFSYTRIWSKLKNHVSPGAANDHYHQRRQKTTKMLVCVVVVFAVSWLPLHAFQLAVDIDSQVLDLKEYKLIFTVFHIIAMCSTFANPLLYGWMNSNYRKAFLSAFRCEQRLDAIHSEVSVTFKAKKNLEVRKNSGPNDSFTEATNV
# [11] = insulin promoter down-regulators in MIN6 cells, imaging, high-content screening, mouse beta cells (AID 1628); assay type: functional
# [12] = cytotoxicity in MIN6 insulinoma cells, dose response, cytotoxicity control, cell-based, mouse insulinoma (AID 2122); assay type: functional;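 also: confirmatory high-throughput counterscreen run to flag cytotoxic compounds; mouse MIN-6 beta cells carrying an insulin promoter eGFP reporter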
# [13] = biological target: T8, Estrogen receptor beta (Homo sapiens, UniProt Q92731);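 also: recombinant ER-beta bound to coactivator SRC1 peptide in presence of estradiol agonist; inhibitors block coactivator peptide binding and lower the FRET signal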
# T8 sequence (Q92731 whole entry): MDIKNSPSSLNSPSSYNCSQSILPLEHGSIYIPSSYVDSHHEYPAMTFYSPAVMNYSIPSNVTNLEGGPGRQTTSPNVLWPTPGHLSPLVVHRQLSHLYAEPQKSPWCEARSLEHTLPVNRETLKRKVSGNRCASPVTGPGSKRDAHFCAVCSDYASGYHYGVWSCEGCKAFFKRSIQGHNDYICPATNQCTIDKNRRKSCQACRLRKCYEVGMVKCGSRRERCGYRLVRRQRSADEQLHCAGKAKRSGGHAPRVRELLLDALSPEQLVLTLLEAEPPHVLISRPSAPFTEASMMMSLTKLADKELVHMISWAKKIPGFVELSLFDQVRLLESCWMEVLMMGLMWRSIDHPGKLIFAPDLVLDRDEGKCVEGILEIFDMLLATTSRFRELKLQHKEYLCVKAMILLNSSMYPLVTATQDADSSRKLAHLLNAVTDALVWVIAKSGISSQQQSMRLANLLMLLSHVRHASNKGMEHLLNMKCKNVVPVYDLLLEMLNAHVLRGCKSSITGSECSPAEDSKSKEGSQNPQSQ
# [14] = biological target: T8, Estrogen receptor beta; assay: ERβ–SRC-3 coactivator interaction inhibitors, confirmation, orthogonal assay, biochemical, ELISA, streptavidin-HRP readout (AID 1060)
# [15] = biological target: Nonstructural protein 1 (Influenza A virus, UniProt Q194T2); assay type: functional, Influenza A virus (A/California/07/2009(H1N1))
# Chain of Nonstructural protein 1 (Q194T2 whole entry): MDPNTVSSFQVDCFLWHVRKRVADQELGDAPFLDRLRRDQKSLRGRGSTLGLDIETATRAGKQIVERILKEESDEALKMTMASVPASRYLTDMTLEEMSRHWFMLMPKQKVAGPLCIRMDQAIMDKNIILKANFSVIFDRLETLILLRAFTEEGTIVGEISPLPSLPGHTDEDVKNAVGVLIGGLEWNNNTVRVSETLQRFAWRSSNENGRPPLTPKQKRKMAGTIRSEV
smiles,measurement,setting,value
O=c1cc(-c2ccc(F)cc2)[nH][nH]1,IC50,[1],1.13 µM (active)
same,IC50,[2],> 73.5 µM (not active)
same,IC50,[3],> 59.6 µM (not active)
same,AC50,[4],1.79 µM (active)
same,EC50,[5],0.548 µM (active)
O=C(NNC(=O)c1ccc(NC(=O)c2ccccc2)cc1)c1ccc(F)cc1,IC50,[6],6.82 µM (active)
same,IC50,[7],> 111 µM (not active)
O=C(NC(=S)Nc1ccc(S(=O)(=O)N2CCCCCC2)cc1)c1cccs1,IC50,[6],14.8 µM (not active)
same,IC50,[7],> 111 µM (not active)
COc1cc(/C=N/Nc2c(Cl)c(Cl)nc(C(=O)O)c2Cl)cc(OC)c1OC,IC50,[8],> 17 µM (not active)
COc1ccc(NC(=O)c2nnc(O)c3ccccc23)cc1S(=O)(=O)N1CCCCC1,IC50,[9],21 µM (not active)
same,IC50,[10],19.6 µM (not active)
O=C(CCC(=O)Nc1ccc(F)cc1)Nc1ccc(F)cc1,IC50,[8],> 17 µM (not active)
CN(C)c1ccc(/N=C/c2ccco2)cc1,IC50,[11],3.55 µM (active)
same,IC50,[12],3.61 µM (active)
same,IC50,[13],18.5 µM (active)
same,IC50,[14],0.048 µM (not active)
same,IC50,[15],16.6 µM (active)
COCc1cc(O)n2c(-c3ccc(C)cc3)nnc2n1,IC50,[13],17.5 µM (active)
same,IC50,[14],1.03 µM (not active)
Cc1ccc(Nc2nnc(SC3CCOC3=O)s2)c(C)c1 (stereo not drawn),IC50,[1],2.57 µM (active)
same,IC50,[2],> 73.5 µM (not active)
same,IC50,[3],> 59.6 µM (not active)
